Laboratory results reported in BigSolDB 2.1.

CN1CCN(C(=O)O[C@H]2c3nccnc3C(=O)N2c2ccc(Cl)cn2)CC1
solubility (mole fraction)
Details	288.15 K	293.15 K	298.15 K	303.15 K	308.15 K	313.15 K	318.15 K	323.15 K	328.15 K
in acetone	0.0013	0.00153	0.0019	0.00229	0.00269	0.00318	0.0037	–	–
in ethanol	0.00023	0.000282	0.00036	0.000431	0.000526	0.000672	0.000851	0.000996	0.0012
in isopropyl acetate	0.000682	0.000796	0.000964	0.0012	0.0014	0.00163	0.00182	0.00203	0.00226
in methyl acetate	0.00187	0.00217	0.0025	0.00303	0.00356	0.00414	0.00484	–	–
in n-propanol	0.00013	0.000172	0.000215	0.000292	0.000382	0.000493	0.00059	0.00079	0.00101
in n-propyl acetate	0.000851	0.00102	0.00124	0.00153	0.00183	0.00208	0.00239	0.0027	0.00303
